Experimental data as given in US6069257A, “Process for the production of tetrazolylbenzopyrans” (SmithKline Beecham p.l.c., priority 1997, dated 2000).

Target: T1, leukotriene D4 receptors (guinea pig lung membranes) (Cavia porcellus, UniProt Q2NNR5)
T1 construct: prepared from tissues obtained from male Hartley guinea pigs; from tissue; host or cells: guinea pig lung membranes (male Hartley guinea pigs)
T1 sequence (Q2NNR5 1-340): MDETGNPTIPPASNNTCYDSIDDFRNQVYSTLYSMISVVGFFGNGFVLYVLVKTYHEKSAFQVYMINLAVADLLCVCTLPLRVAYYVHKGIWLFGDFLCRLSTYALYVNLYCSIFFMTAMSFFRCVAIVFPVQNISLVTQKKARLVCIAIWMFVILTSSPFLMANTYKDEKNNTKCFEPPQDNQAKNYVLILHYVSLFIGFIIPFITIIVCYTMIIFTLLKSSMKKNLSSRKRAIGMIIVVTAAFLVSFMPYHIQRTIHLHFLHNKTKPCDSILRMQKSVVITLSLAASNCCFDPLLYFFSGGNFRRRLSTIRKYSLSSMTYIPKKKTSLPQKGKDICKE
Test: [3H]-LTD4 binding studies in guinea pig lung membranes
Experimental: Experimental Procedure for Binding Studies in Guinea-Pig Lungs with Pranlukast and Metabolites
Non-specific binding was determined in the presence of 0.5 uM cold LTD4. Membranes with bound ligand were captured on Whatman GF/C filters using vacuum filtration and a Brandel cell harvester, then washed with ice-cold 25 mM Tris-HCl. pH 7.4. The filters were placed in scintillation vials with 10 ml Ready Protein (Beckman, Fullerton, Calif., U.S.A.) and the radioactivity was determined by scintillation spectrometry.
All data are presented as Mean±S.E.M. Concentration-response curves (0.3-10,000 nM) for each compound were tested in at least 2 assays and run in duplicate. Cell-bound radioactivity was determined for each sample and non-specific binding was established in the presence of 1 uM unlabeled LTD4 and subtracted from control and drug-treated samples.

In the case of `O=C(Nc1cccc2c(=O)cc(-c3nnnn3O)oc12)c1ccc(OCCCCc2ccccc2)cc1` [Example 1, 4-Oxo-8-[4-(4-phenylbutoxy)benzoylamino]-2-(1-hydroxytetrazol-5-yl)-4H-1-benzopyran], the Ki is reported as 0.22 nM.
With `O=C(Nc1cccc2c(=O)cc(-c3nnn(O)n3)oc12)c1ccc(OCCCCc2ccccc2)cc1` [Example 2, 4-Oxo-8-[4-(4-phenylbutoxy)benzoylamino]-2-(2-hydroxytetrazol-5-yl)-4H-1-benzopyran] the Ki was 0.53 nM.
